Tests used:
Jurkat cells = experiment: CellTiterGlo cell viability assay; assay type: cell-based, human; details: Homo sapiens, 24 h, mean of triplicates, ^b/^c values estimated, read-out: IC50±sd/μM (cell viability)
Experimental: The effects of the compounds on cell viability was determined using the CellTiter-Glo® 2.0 Cell Viability Assay (Promega: G9241) following manufacturer’s protocol. Ten µL of Jurkat cells at […]
After equilibration, PROTACs were titrated at various concentrations using an Echo acoustic […]
volume of CellTiter-Glo® 2.0 reagent (10 µL) was added to each well and cells were incubated for 10 minutes at room temperature. Filtered luminescence was measured on a PHERAstar plate reader (BMG Labtech) and data was evaluated using GraphPad Prism 9 software employing a normalized curve it with the following equation: Y=Bottom + (Top-Bottom)/(1+10(LogEC50-X) *HillSlope).
Sample preparation. Jurkat cells (ATCC © HTB-22) were cultured in RPMI (Thermo: […]

[1] = system: kinase protein levels in Jurkat cells; experiment: TMT-labeled quantitative proteomics; assay type: cell-based, human; details: Jurkat, 1 µM, set1.2
Experimental: cultured in RPMI (Thermo: 11875093) supplemented as mentioned above. Cells were seeded in 6 well plates (Greiner: 657160) at a cell density of 1·10 6 cells/well and left at 37 °C and 5% […]
(§1) 50 µl of SDS Lysis Buffer (2% SDS, 50 mM TRIS pH 8.5, 10 mM TCEP, 40 mM CAA) was added to each sample. Cells were transferred into low binding reaction tubes (Eppendorf:
0030108116) and samples were boiled for 15 minutes at 95 °C and sonicated for 2 minutes.
(§2) Methanol/Chloroform Precipitation. 200 µl of methanol and 50 µl of chloroform were added to each sample reaction tube and mixed via vortex. 150 µl of milliQ-H2O were added and samples were vortexed further. Samples were centrifuged for 5 minutes at 15000 g and the aqueous layer above the interphase was removed. 150 µl of methanol was added, samples were vortexed and centrifuged for 10 minutes at 15000 g to precipitate the pellet. The aforementioned wash procedure was repeated twice before transferring the pellet to a new low bind reaction tube in which it was allowed to dry for 5 minutes.
Dissolving the Protein Pellet and Protein Quantification. 50 µl of digestion buffer (8 M Urea, 50 mM TRIS pH 8) was added to each sample before vortexing and shaking at 750 rpm at room temperature for 10 minutes to solubilize the pellet. Protein quantification via PierceTM BCA Protein Assay Kit (Thermo: 23225) was carried out according to manufacturer’s protocol.
(§3) Protein Digestion. Samples were diluted 1:2 with 50 mM TRIS pH 8.5 to reach a final concentration of 4 M Urea. Lys-C (Promega: VA1170) was added at a 1:100 enzyme/substrate ratio. Samples were agitated at 550 rpm and 37 °C for 3 h. Samples were further diluted with 50 mM TRIS pH 8.5 to a final concentration of 1 M Urea and Trypsin (Promega: V5280) was added at a 1:100 enzyme/substrate ratio. Samples were agitated overnight at 550 rpm and 37 °C. The digestion was stopped the following day via addition of TFA to a final concentration […]
(§4) Solid Phase Extraction via C18 Cartridges. Sep-Pak C18 Cartridges (Waters: WAT054955) were used for solid phase extraction of digested peptides. For preconditioning of C18 cartridges, 1 mL of methanol was added to each column followed by 1 mL of solution B (0.1% formic acid, 80% acetonitrile) and 1 mL of solution A (0.1% formic acid, ddH2O) twice. Samples […]
(§5) were loaded to their respective columns and once samples had passed, columns were washed twice with solution A to remove unwanted components from the loading step. Elution of samples was carried out via introduction of 40% and 60% acetonitrile steps. Samples were dried and snap frozen in liquid nitrogen.
TMT-Labeling. Desalted peptides were dried and resuspended in TMT-labeling buffer (200 mM EPPS pH 8.2, 20% acetonitrile). 10 μg of peptides per condition were subjected to TMT labeling with 1:2.5 peptide TMT ratio (w/w) for 1 h at room temperature. The labeling reaction was quenched by addition of hydroxylamine to a final concentration of 0.5% and incubation at room temperature for 15 minutes. Successful TMT labeling was verified by mixing equimolar ratios of peptides and subjecting the mix to single shot LC-MS/MS analysis. For high pH reversed phase fractionation on a Dionex analytical HPLC, 50 µg of pooled and purified TMT labelled samples were resuspended in 10 mM ammonium-bicarbonate (ABC), 5% acetonitrile, […]
particle size; Phenomenex) using a multistep gradient from 100% solvent A (5% acetonitrile, 10 mM ABC in water) to 60% solvent B (90% acetonitrile, 10 mM ABC in water) over 70 minutes. Eluting peptides were collected every 45 seconds into a total of 96 fractions, which were cross-concatenated into 24 fractions and dried in a vacuum concentrator and resuspended in 3% acetonitrile with 0.1% TFA for LC-MS analysis.
Mass spectrometry data acquisition. Tryptic peptides were analyzed on an Orbitrap Lumos coupled to an easy nLC 1200 (ThermoFisher Scientific) using a 35 cm long, 75 µm ID fused-

VHL = VHL (Homo sapiens, UniProt P40337); experiment: NanoBRET target engagement assay; details: permeabilized cells
Experimental: Compounds were pipetted at various concentrations using an Echo acoustic dispenser (Labcyte), immediately followed by Tracer K10 (Promega, Tracer DB ID: T000008) for AAK1 and Aurora A and VHL Tracer (Promega, Tracer DB ID: T000019) for VHL, at an optimum KD concentration chosen from TracerDB ( tracerdb.org), respectively.
To measure the BRET signal, the NanoBRET® NanoGlo Substrate (Promega:
N1573) was added as per the manufacturer’s protocol, and filtered luminescence was measured on a PHERAstar plate reader (BMG Labtech) equipped with a luminescence filter pair (450 nm BP filter (donor) and 610 nm LP filter (acceptor)). For NanoBRET® measurement in permeabilized cells, 25 nL of digitonin (0.05 μg/μL) was pipetted into each well using an
After incubation, the BRET signals were measured by a PHERAstar plate reader (BMG Labtech) following the same procedure as intact NanoBRET® measurement. Competitive displacement data were then normalized to controls and were plotted using GraphPad Prism 9 software employing a normalized 3-parameter curve fit with the following equation:

[2] = system: kinase protein levels in MCF-7 cells; experiment: TMT-labeled quantitative proteomics; assay type: cell-based, human; details: for log2FC (compound/DMSO): MCF7, 1 µM, set1.1
Experimental: as §1, §2
(§6) Dissolving the Protein Pellet and Protein Quantification. 50 µl of digestion buffer (8 M Urea, 50 mM TRIS pH 8) was added to each sample before vortexing and shaking at 750 rpm at room temperature for 10 minutes to solubilize the pellet. Protein quantification via PierceTM […]
as §3, §4, §5
(§7) TMT-Labeling. Desalted peptides were dried and resuspended in TMT-labeling buffer (200 mM EPPS pH 8.2, 20% acetonitrile). 10 μg of peptides per condition were subjected to TMT labeling with 1:2.5 peptide TMT ratio (w/w) for 1 h at room temperature. The labeling reaction was quenched by addition of hydroxylamine to a final concentration of 0.5% and incubation at room temperature for 15 minutes. Successful TMT labeling was verified by mixing equimolar ratios of peptides and subjecting the mix to single shot LC-MS/MS analysis. For high pH reversed phase fractionation on a Dionex analytical HPLC, 50 µg of pooled and purified TMT labelled samples were resuspended in 10 mM ammonium-bicarbonate (ABC), 5% acetonitrile, and separated on a 250 mm long C18 column (Aeris Peptide XB-C18, 4.6 mm ID, 2.6 µm particle size; Phenomenex) using a multistep gradient from 100% solvent A (5% acetonitrile, 10 mM ABC in water) to 60% solvent B (90% acetonitrile, 10 mM ABC in water) over 70 minutes. Eluting peptides were collected every 45 seconds into a total of 96 fractions, which were cross-concatenated into 24 fractions and dried in a vacuum concentrator and resuspended in 3% acetonitrile with 0.1% TFA for LC-MS analysis.
(§8) Mass spectrometry data acquisition. Tryptic peptides were analyzed on an Orbitrap Lumos coupled to an easy nLC 1200 (ThermoFisher Scientific) using a 35 cm long, 75 µm ID fused-silica column packed in house with 1.9 µm C18 particles (Reprosil pur, Dr. Maisch), and kept at 50 °C using an integrated column oven (Sonation). HPLC solvents consisted of 0.1% formic acid in water (buffer A) and 0.1% formic acid and 80% acetonitrile in water (buffer B). Assuming

[3] = target: T1, kinase protein levels in MCF-7 cells (Homo sapiens, UniProt A0A0B4J2F0); experiment: TMT-labeled quantitative proteomics; assay type: cell-based; details: protein PIGBOS1; MCF7; 1 µM; set1.1
T1 construct: endogenous in cells; host or cells: MCF-7
T1 sequence (A0A0B4J2F0 1-54): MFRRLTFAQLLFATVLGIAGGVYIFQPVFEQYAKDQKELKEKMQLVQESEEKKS
Experimental: as §1, §2, §6, §3, §4, §5, §7, §8

VHL, sequence (P40337 whole entry): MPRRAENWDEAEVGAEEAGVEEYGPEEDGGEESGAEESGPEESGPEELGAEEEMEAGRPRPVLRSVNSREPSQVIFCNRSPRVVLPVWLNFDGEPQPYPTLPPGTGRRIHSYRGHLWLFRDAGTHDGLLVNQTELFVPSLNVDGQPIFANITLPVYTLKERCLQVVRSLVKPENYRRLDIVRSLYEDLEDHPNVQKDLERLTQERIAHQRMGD

IC50 (Jurkat cells): 8.5 ± 0.8 µM | VHL binding (VHL): did not bind strongly to VHL | P.Value (compound/DMSO) [3]: 0.867 | log2FC (compound/DMSO) [3]: -0.01736
Compound: Cc1ncsc1-c1ccc(CNC(=O)[C@@H]2C[C@@H](O)CN2C(=O)[C@@H](NCCOCCOCCOCCOCCC(=O)N2CCN(c3ccc(Nc4ncc(Cl)c(Nc5ccccc5C(N)=O)n4)cc3)CC2)C(C)(C)C)cc1 [6-c]
log2FC (compound/DMSO) ([1]; protein NUDT4): 0.05309 | log2FC (compound/DMSO) ([1]; protein PIGBOS1): -0.1563 | log2FC (compound/DMSO) ([1]; protein TRAV8-2): -0.1064 | log2FC (compound/DMSO) ([1]; protein TRBV12-3;TRBV12-4): -0.03811 | kinase degradation ([2]; MCF-7 cells, 1 μM, 6 h): did not result in significant degradation of any kinase | log2FC (compound/DMSO) ([2]; protein NBPF19;NBPF15;NBPF8;NBPF10;NBPF26;NBPF14): -0.692 | log2FC (compound/DMSO) ([2]; protein NUDT4): -0.0761

— paper PMC11851430, “Workflow for E3 Ligase Ligand Validation for PROTAC Development” (ACS Chemical Biology, 2025)
